Patent US7598344B2, “Composition, method and use of bi-functional biomaterials” (Board of Regents, The University of Texas System, priority 2002, dated 2009)
Ends that are not written are not given here.

Tests used:
[1] = Biotinylated T59 peptide binding, streptavidin-FITC labeling, on PPyCl; conditions: 15 μM peptide, 0.5×0.5 cm^2 substrate
Protocol: (§1) (b) 15 μM peptide bound to 0.5×0.5 cm^2 PPyCl substrate. (c) 15 μM peptide bound to 0.5×0.5 cm^2 PPyPSS substrate. (d) 15 μM peptide bound to 0.5×0.5 cm^2 polystyrene (PS) substrate. All samples were incubated with equal concentrations of streptavidin-FITC. Bar, 10 μm.
(§2) Additional working example data were obtained for the polypyrrole system. A peptide was synthesized whose sequence was determined from the T59 phage (ie., SEQ ID NO. 1).

[2] = Biotinylated T59 peptide binding, streptavidin-FITC labeling, on polystyrene; conditions: 15 μM peptide, 0.5×0.5 cm^2 substrate
Protocol: as §1, §2

[3] = serum-containing media, pH 7.4, 15% serum; 3 hr, 7 days, 3 weeks
Protocol: Binding was studied using biotinylated T59 peptide and streptavidin-FITC labeling. (a) control substrate in which no T59 peptide was added, 0.5×0.5 cm2 PPyCl substrates (b) and (c) were incubated with 15 μM peptide, the samples were then placed in serum-containing media (pH 7.4 and 15% serum) for 3 hr (b), 7 days (c), and 3 weeks (d). Bar, 10 μm.
In addition, T59 peptide binding stability in serum-containing medium was also evaluated in working examples using immunofluorescence (note that all previous experiments were done in saline buffer).

THRTSTLDYFVI (also: biotinylated, position not given here) [T59 peptide]
peptide binding to PPyCl [1]: binds to PPyCl
peptide binding to polystyrene (PS) [2]: not to PPyPSS or to polystyrene (PS)
binding stability of PPyCl-bound peptide [3]: a significant fraction of T59 peptides remained bound to PPyCl even after 3 weeks
